Measured values: patent US10828315B2 (Madrigal Pharmaceuticals, Inc., priority 2013, dated 2020)
Where two headings read alike, the source gives them in different places.

How the values were obtained:
[1] = Mouse plasma stability protocol, up to 1 h (Examples 16-18); conditions: for % Remaining (1 h): % Remaining of parent after 1 h incubation in mouse plasma at 37° C. (10 μM)
[2] = Metabolite profiling and identification; assay type: in vitro ADME; design: key: —: Not detected; conditions: for Metabolite N-dealkylation + glucuronidation: M+1 527.3; for Metabolite Sulfation: M+1 542.3; for Metabolite Hydrolysis (SN-38): M+1 393.3; for Metabolite Hydrolysis (SDC-TRAP-0062): M+1 462.3; for Metabolite Hydrolysis (SN-38) + glucuronidation: M+1 569.3; for Metabolite Hydrolysis (SDC-TRAP-0062) + glucuronidation: M+1 638.3; for Metabolite Hydrolysis (SDC-TRAP-0063): M+1 880.3; for Metabolite Hydrolysis (SDC-TRAP-0063) + glucuronidation: M+1 1056.4; for Metabolite Glucuronidation: M+1 1136.4
Source text: Metabolite Profiling and Identification: Metabolite profiling/identification for SDC-TRAP-0063 (M+1:880.3)

[3] = female, SCID, mouse, in vivo

CCc1c2c(nc3ccc(OC(=O)N4CCC(S(=O)(=O)N5CCC(CCn6ccc7cc(-n8c(O)nnc8-c8cc(C(C)C)c(O)cc8O)ccc76)CC5)CC4)cc13)-c1cc3c(c(=O)n1C2)COC(=O)[C@]3(O)CC [SDC-TRAP-0336, (S)-4,11-diethyl-4-hydroxy-3,14-dioxo-3,4,12,14-tetrahydro-1H-pyrano[3′,4′:6,7]indolizino[1,2-b]quinolin-9-yl 4-((4-(2-(5-(3-(2,4-dihydroxy-5-isopropylphenyl)-5-hydroxy-4H-1,2,4-triazol-4-yl)-1H-indol-1-yl)ethyl)piperidin-1-yl)sulfonyl)piperidine-1-carboxylate]
% Remaining (1 h) [1]: 31.7%

CCc1c2c(nc3ccc(OC(=O)N4CCN(S(=O)(=O)N5CCC(CCn6ccc7cc(-n8c(O)nnc8-c8cc(C(C)C)c(O)cc8O)ccc76)CC5)CC4)cc13)-c1cc3c(c(=O)n1C2)COC(=O)C3(O)CC (centres unmarked) [SDC-TRAP-0361, 4,11-diethyl-4-hydroxy-3,14-dioxo-3,4,12,14-tetrahydro-1H-pyrano[3′,4′: 6,7]indolizino[1,2-b]quinolin-9-yl 4-((4-(2-(5-(3-(2,4-dihydroxy-5-isopropylphenyl)-5-hydroxy-4H-1,2,4-triazol-4-yl)-1H-indol-1-yl)ethyl)piperidin-1-yl)sulfonyl)piperazine-1-carboxylate]
% Remaining (1 h) [1]: 25.6%

CCNC(=O)c1nnc(-c2cc(C(C)C)c(O)cc2O)n1-c1ccc(C(=O)N2CCN(c3ccc(OC(=O)Nc4cccc5c4C(=O)N(C4CCC(=O)NC4=O)C5=O)c(OC)c3)CC2)cc1 (centres unmarked) [SDC-TRAP-0398, 4-(4-(4-(3-(2,4-dihydroxy-5-isopropylphenyl)-5-(ethylcarbamoyl)-4H-1,2,4-triazol-4-yl)benzoyl)piperazin-1-yl)-2-methoxyphenyl (2-(2,6-dioxopiperidin-3-yl)-1,3-dioxoisoindolin-4-yl)carbamate]
% Remaining (1 h) [1]: 1.40%

CCc1c2c(nc3ccc(OC(=O)N4CCC(N5CCC(CCn6ccc7ccc(-n8c(O)nnc8-c8cc(C(C)C)c(O)cc8O)cc76)CC5)CC4)cc13)-c1cc3c(c(=O)n1C2)COC(=O)C3(O)CC (centres unmarked) [SDC-TRAP-0353, 4,11-diethyl-4-hydroxy-3,14-dioxo-3,4,12,14-tetrahydro-1H-pyrano[3′,4′:6,7]indolizino[1,2-b]quinolin-9-yl 4-(2-(6-(3-(2,4-dihydroxy-5-isopropylphenyl)-5-hydroxy-4H-1,2,4-triazol-4-yl)-1H-indol-1-yl)ethyl)-[1,4′-bipiperidine]-1′-carboxylate]
% Remaining (1 h) [1]: 22.5%

CCc1c2c(nc3ccc(O)cc13)-c1cc3c(c(=O)n1C2)COC(=O)C3(CC)OC(=O)N1CCN(C(=O)C2CCN(c3ccc(-n4c(O)nnc4-c4cc(C(C)C)c(O)cc4O)cc3)CC2)CC1 (centres unmarked)
% Remaining (1 h) [1]: 108%

CCc1c2c(nc3ccc(O)cc13)-c1cc3c(c(=O)n1C2)COC(=O)[C@@]3(CC)OC(=O)CN1CCC(CCn2ccc3cc(-n4c(O)nnc4-c4cc(C(C)C)c(O)cc4O)ccc32)CC1 [SDC-TRAP-0107, (S)-4,11-diethyl-9-hydroxy-3,14-dioxo-3,4,12,14-tetrahydro-1H-pyrano[3′,4′:6,7]indolizino[1,2-b]quinolin-4-yl 2-(4-(2-(5-(3-(2,4-dihydroxy-5-isopropylphenyl)-5-hydroxy-4H-1,2,4-triazol-4-yl)-1H-indol-1-yl)ethyl)piperidin-1-yl)acetate]
% Remaining (1 h) [1]: 111%

CCNC(=O)c1nnc(-c2cc(C(C)C)c(O)cc2O)n1-c1ccc(OC2CCN(C(=O)C3CCCCN3C(=O)Oc3ccc4nc5c(c(CC)c4c3)Cn3c-5cc4c(c3=O)COC(=O)[C@]4(O)CC)CC2)cc1 (stereo partly drawn) [SDC-TRAP-0216, (S)-4,11-diethyl-4-hydroxy-3,14-dioxo-3,4,12,14-tetrahydro-1H-pyrano[3′,4′:6,7]indolizino[1,2-b]quinolin-9-yl 2-(4-(4-(3-(2,4-dihydroxy-5-isopropylphenyl)-5-(ethylcarbamoyl)-4H-1,2,4-triazol-4-yl)phenoxy)piperidine-1-carbonyl)piperidine-1-carboxylate]
% Remaining (1 h, 37° C.) ([1]; mouse plasma, 1 h, 37° C.): 67.7%

CCc1c2c(nc3ccc(OC(=O)N4CCC(N(C)CCNC(=O)c5nnc(-c6cc(C(C)C)c(O)cc6O)n5-c5cccnc5)CC4)cc13)-c1cc3c(c(=O)n1C2)COC(=O)C3(O)CC (centres unmarked) [SDC-TRAP-0358]
% Remaining (1 h) [1]: 41.0%

CCc1c2c(nc3ccc(O)cc13)-c1cc3c(c(=O)n1C2)COC(=O)C3(CC)OC(=O)N(C)Cc1ccc(OC(=O)N2CCN(Cc3ccc(-n4c(O)nnc4-c4cc(C(C)C)c(O)cc4O)cc3)CC2)cc1 (centres unmarked) [SDC-TRAP-0356, 4-(((((4,11-diethyl-9-hydroxy-3,14-dioxo-3,4,12,14-tetrahydro-1H-pyrano[3′,4′:6,7]indolizino[1,2-b]quinolin-4-yl)oxy)carbonyl)(methyl)amino)methyl)phenyl 4-(4-(3-(2,4-dihydroxy-5-isopropylphenyl)-5-hydroxy-4H-1,2,4-triazol-4-yl)benzyl)piperazine-1-carboxylate]
% Remaining (1 h) [1]: 70.9%

CCNC(=O)c1nnc(-c2cc(C(C)C)c(O)cc2O)n1-c1ccc2c(c1)CN(S(=O)(=O)C1CCN(C(=O)Oc3ccc4nc5c(c(CC)c4c3)Cn3c-5cc4c(c3=O)COC(=O)C4(O)CC)CC1)C2 (centres unmarked) [SDC-TRAP-0391, 4,11-diethyl-4-hydroxy-3,14-dioxo-3,4,12,14-tetrahydro-1H-pyrano[3′,4:6,7]indolizino[1,2-b]quinolin-9-yl 4-((5-(3-(2,4-dihydroxy-5-isopropylphenyl)-5-(ethylcarbamoyl)-4H-1,2,4-triazol-4-yl)isoindolin-2-yl)sulfonyl)piperidine-1-carboxylate]
% Remaining (1 h) [1]: 15.2%

CCNC(=O)c1nnc(-c2cc(C(C)C)c(O)cc2O)n1-c1ccc(C(=O)N2CCN(c3cc(C)c(OC(=O)Nc4cccc5c4C(=O)N(C4CCC(=O)NC4=O)C5=O)c(C)c3)CC2)cc1 (centres unmarked) [SDC-TRAP-0400, 4-(4-(4-(3-(2,4-dihydroxy-5-isopropylphenyl)-5-(ethylcarbamoyl)-4H-1,2,4-triazol-4-yl)benzoyl)piperazin-1-yl)-2,6-dimethylphenyl (2-(2,6-dioxopiperidin-3-yl)-1,3-dioxoisoindolin-4-yl)carbamate]
% Remaining (1 h) [1]: 70.4%

CC(C)c1cc(-c2nnc(O)n2-c2ccc3c(ccn3CCC3CCNCC3)c2)c(O)cc1O [SDC-TRAP-0062]
Metabolite N-dealkylation + glucuronidation ([2]; Hepatocytes Dog): √ | Metabolite N-dealkylation + glucuronidation ([2]; Hepatocytes Human): √ | Metabolite N-dealkylation + glucuronidation ([2]; Hepatocytes Monkey): — | Metabolite N-dealkylation + glucuronidation ([2]; Hepatocytes Mouse): √ | Metabolite Sulfation ([2]; Hepatocytes Mouse): — | Metabolite N-dealkylation + glucuronidation ([2]; Hepatocytes Rat): — | Metabolite Sulfation ([2]; Hepatocytes Rat): √

CC(C)c1cc(-c2nnc(O)n2-c2ccc3c(ccn3CCC3CCNCC3)c2)c(O)cc1O [DP-1]
Tumor Conc. ([3]; 24 h): 0.404 nmol/g of tissue | Tumor Conc. ([3]; 48 h): 1.06 nmol/g of tissue | Tumor Conc. ([3]; […]): 0.00758 nmol/g of tissue

CCc1c2c(nc3ccc(OC(=O)N4CCC(CCn5ccc6cc(-n7c(O)nnc7-c7cc(C(C)C)c(O)cc7O)ccc65)CC4)cc13)-c1cc3c(c(=O)n1C2)COC(=O)C3(CC)OP(=O)(O)O (centres unmarked) [SDC-TRAP-0397, 4,11-diethyl-3,14-dioxo-4-(phosphonooxy)-3,4,12,14-tetrahydro-1H-pyrano[3′,4′: 6,7]indolizino[1,2-b]quinolin-9-yl 4-(2-(5-(3-(2,4-dihydroxy-5-isopropylphenyl)-5-hydroxy-4H-1,2,4-triazol-4-yl)-1H-indol-1-yl)ethyl)piperidine-1-carboxylate]
Metabolite Hydrolysis (SN-38) ([2]; Hepatocytes Dog): √ | Metabolite Hydrolysis (SDC-TRAP-0062) ([2]; Hepatocytes Dog): √ | Metabolite Hydrolysis (SN-38) + glucuronidation ([2]; Hepatocytes Dog): — | Metabolite Hydrolysis (SDC-TRAP-0062) + glucuronidation ([2]; Hepatocytes Dog): — | Metabolite Hydrolysis (SDC-TRAP-0063) ([2]; Hepatocytes Dog): — | Metabolite Hydrolysis (SDC-TRAP-0063) + glucuronidation ([2]; Hepatocytes Dog): — | Metabolite Glucuronidation ([2]; Hepatocytes Dog): — | Metabolite Hydrolysis (SN-38) ([2]; Hepatocytes Human): √ | Metabolite Hydrolysis (SDC-TRAP-0062) ([2]; Hepatocytes Human): √ | Metabolite Hydrolysis (SN-38) + glucuronidation ([2]; Hepatocytes Human): — | Metabolite Hydrolysis (SDC-TRAP-0062) + glucuronidation ([2]; Hepatocytes Human): — | Metabolite Hydrolysis (SDC-TRAP-0063) ([2]; Hepatocytes Human): √ | Metabolite Hydrolysis (SDC-TRAP-0063) + glucuronidation ([2]; Hepatocytes Human): √ | Metabolite Glucuronidation ([2]; Hepatocytes Human): — | Metabolite Hydrolysis (SN-38) ([2]; Hepatocytes Monkey): — | Metabolite Hydrolysis (SDC-TRAP-0062) ([2]; Hepatocytes Monkey): — | Metabolite Hydrolysis (SN-38) + glucuronidation ([2]; Hepatocytes Monkey): √ | Metabolite Hydrolysis (SDC-TRAP-0062) + glucuronidation ([2]; Hepatocytes Monkey): √ | Metabolite Hydrolysis (SDC-TRAP-0063) ([2]; Hepatocytes Monkey): — | Metabolite Hydrolysis (SDC-TRAP-0063) + glucuronidation ([2]; Hepatocytes Monkey): √ | Metabolite Glucuronidation ([2]; Hepatocytes Monkey): √ | Metabolite Hydrolysis (SN-38) ([2]; Hepatocytes Mouse): √ | Metabolite Hydrolysis (SDC-TRAP-0062) ([2]; Hepatocytes Mouse): √ | Metabolite Hydrolysis (SN-38) + glucuronidation ([2]; Hepatocytes Mouse): — | Metabolite Hydrolysis (SDC-TRAP-0062) + glucuronidation ([2]; Hepatocytes Mouse): — | Metabolite Hydrolysis (SDC-TRAP-0063) ([2]; Hepatocytes Mouse): — | Metabolite Hydrolysis (SDC-TRAP-0063) + glucuronidation ([2]; Hepatocytes Mouse): √ | Metabolite Glucuronidation ([2]; Hepatocytes Mouse): √ | Metabolite Hydrolysis (SN-38) ([2]; Hepatocytes Rat): — | Metabolite Hydrolysis (SDC-TRAP-0062) ([2]; Hepatocytes Rat): √ | Metabolite Hydrolysis (SN-38) + glucuronidation ([2]; Hepatocytes Rat): — | Metabolite Hydrolysis (SDC-TRAP-0062) + glucuronidation ([2]; Hepatocytes Rat): — | Metabolite Hydrolysis (SDC-TRAP-0063) ([2]; Hepatocytes Rat): — | Metabolite Hydrolysis (SDC-TRAP-0063) + glucuronidation ([2]; Hepatocytes Rat): √ | Metabolite Glucuronidation ([2]; Hepatocytes Rat): —
